Assay results as given in patent publication US20250332176A1, “TREATMENT FOR FIBROSIS AND INHIBITION OF FIBROSIS” (GALMED RESEARCH AND DEVELOPMENT LTD, priority 2022, published 2025).
Entries after “also recorded” stand apart in the source; their conditions may differ. Read-outs that look alike come from different tables or passages of the source.

Legend:
[1] = Phase 2 ARAMCHOL 003 repeat dose plasma exposure in patients; format: in vivo, human; details: for AUC/Dose / Relative bioavailability (AUC/Dose normalized to 30 mg HV data) / AUC at 84 day: patients; for AUC/Dose / Relative bioavailability (AUC/Dose normalized to 30 mg HV data): D84; for AUC at 84 day: human, plasma, oral
Method: (§1) Table 1 summarizes the reported plasma exposure from three studies-single dose Phase I in healthy volunteers (30-900 mg, AUC=AUCinf); Phase II ARAMCHOL™ 003 repeat dose study (AUC on D84 from 100 & 300 mg QD), Phase IIb Cmin on D84 (400 and 600 mg QD).
Exposure in patients is also sub-proportional from 100 to 300 mg. […] This may be due to the use of a tablet formulation in the patient study versus the powder/suspension in healthy volunteers or may simply reflect a high degree of inter-subject variability (typically exposure CV is >50% within a study group).

[2] = system: Primary hepatocytes from C57BL/6 mice; assay: PPARγ mRNA expression in primary hepatocytes (qPCR); format: cell-based; details: Aramchol 10 μM, 48 hours
Method: Serum-starved LX2 cells were treated with Aramchol™ (10 μM) for 24 or 48 hours. Fibrogenic gene expression and SCD-1 protein expression were measured by qPCR and Western, respectively. RNAseq was performed at 24 and 48 h in duplicate. Differential gene expression was assessed with DSeq2, while gene set enrichment analysis (GSEA) and gene ontology (GO) analyses assessed functionality of gene expression changes. Primary hepatocytes from C57BL/6 mice were harvested by perfusion and treated with Aramchol™ ([…]) for 48 hours in culture. PPAR γ mRNA expression was measured by qPCR.

[3] = Phase 2b steady state trough (Cmin) plasma concentration in patients; format: in vivo, human; details: for AUC/Dose / Relative bioavailability (AUC/Dose normalized to 30 mg HV data) / concentration at 84 day / AUC: patients; for AUC/Dose / Relative bioavailability (AUC/Dose normalized to 30 mg HV data) / concentration at 84 day: D84; for concentration at 84 day: read-out: SS Cmin; for AUC: estimated from observed Cmin on D84*24 h
From the text: Blood sample for Aramchol™ trough level will be collected (pre-dose) from patients in Israel at baseline (visit 2) week 4 (visit 4), week 12 (visit 6), week 24 (visit 7), week 40 (visit 9), end of treatment (visit 10) and follow up (visit 11). At selected sites in Mexico, USA and Hong Kong one blood sample will be collected (pre-dose) on visit 4 (up to 10 subjects per country) to test for trough Aramchol™ blood level differences between populations (e.g., African American, Asian, Hispanic).
as §1
The steady state (day 84) Cmin in patients at 400 mg and 600 mg has been measured. […] Again, this may reflect inter-subject variability or a difference in the excipients used in the tablets.

[4] = system: LX-2 human hepatic stellate cells; assay: Inhibition of collagen synthesis in stellate cells (COL1A1, PPARγ expression, collagen production); format: cell-based
Method: LX2 cells (150.000 cells per well) were plated in DMEM media containing antibiotics, glutamine and bovine fetal serum. After 24 hours incubation, media was changed to 0% serum and incubated for an additional period of 16 hours. Then, Aramchol™ (10 mM) was added and 24 hours later RNA was extracted with Trizol.

[5] = Modelling and simulation of 300 mg BID and 600 mg QD doses in patients (Phoenix 64, single compartment); parameters: species or system human; details: correction for sub-proportional PK
Method: Given the sub-proportional exposure generally seen, splitting the same total daily dose into two BID doses is likely to increase plasma AUC. The aim of this analysis was to model this behavior.
The 300 mg data on day 1 and day 84 in patients (Phase 2 ARAMCHOL™ 003) has been modelled in Phoenix 64@ assuming single compartment pharmacokinetics (parameterized by Cl and V) and first order absorption at a rate Ka with a delay, Tlag. The fitted model parameters all have a CV<25% and the predicted concentration data reasonably capture the observed data as shown in FIGS. 13A-13C.
To predict exposure at 600 mg, a correction for sub-proportional PK (lower bioavailability at higher dose) has been made assuming the same non-linearity at observed in healthy volunteers.

human NAFLD = assay: 3-month phase 2a human NAFLD study; format: in vivo
Wistar rats = assay: Thioacetamide (TAA)-induced fibrosis, model for hepatic cirrhosis; format: in vivo; details: 5 mg/kg, co-administered with TAA during 10 weeks
Method: Liver fibrosis was induced in Wistar rats by intraperitoneal injections of TAA (20 mg/100 gr body weight) twice per week during 10 weeks. I.p. application of TAA results in hepatic centrolobular necrosis, elevated transaminase activity and robust liver fibrosis. Treatment groups further included co-administration of Aramchol™ (1 or 5 mg/kg orally) or obaticholic acid (OCA, 5 mg/kg). A control group of saline-treated rats (in the absence of TAA administration) was further included. Rats were then sacrificed, and livers were observed macroscopically for signs of cirrhosis and necrotic lesions, and microscopically, following Masson Goldner staining. The fibrosis score, calculated at a scale of 0-4, was determined for each sample, wherein 0 indicates no fibrosis and 4 indicates advanced fibrosis and cirrhosis.

0.1MCD-fed mice = assay: 0.1% methionine- and choline-deficient (0.1MCD) diet mouse model of NASH; format: in vivo
From the text: The study described below investigates the mechanism of action of Aramchol™ and its potential effect on fibrosis using the 0.1% methionine- and choline-deficient (0.1MCD) diet mouse model of NASH.
C57BI/6 were fed the Methionine and Choline Deficient (MCD) and control diet and were sacrificed after 4 weeks. The MCD diet induces aminotransferase elevation and changes in hepatic histological features, characterized by steatosis, local inflammation, hepatocyte necrosis and fibrosis. These changes occur rapidly and are morphologically similar to those observed in human NASH. In this study the MCD diet contained 0.1% methionine to minimize and stabilize weight loss. At the end of the second week, after verification of established NASH, 0.1MCD-fed mice were treated orally by gavage with Aramchol™ (5 mg/Kg/day) or vehicle (n=10, each condition). Control diet-fed mice were also treated with vehicle for same duration (n=10). At the end of the experiment, blood and liver samples were obtained. A diagram of the experimental design is shown below: […]

[6] = 5 mg/Kg/day orally by gavage from end of second week to week 4
[7] = 5 mg/Kg/day orally by gavage, liver

Which AUC/Dose ([1]; 100 mg QD repeat dose) does the source give for `CCCCCCCCCCCCCCCCCCCC(=O)N[C@H]1CC[C@@]2(C)[C@@H](C1)C[C@@H](O)[C@@H]1[C@@H]2C[C@H](O)[C@]2(C)[C@@H]([C@H](C)CCC(=O)O)CC[C@@H]12` [Aramchol™, 3β-arachidylamido-7α, 12α-dihydroxy-5β-cholan-24-oic acid] here?
Its AUC/Dose is 197 ng/mL · h/(mg/kg).

And the “Relative bioavailability (AUC/Dose normalized to 30 mg HV data)” value ([1]; 100 mg QD repeat dose)?
The value was 0.50.

What about the “steady-state AUC in patients lower than AUCinf from a single dose in healthy volunteers” value ([1]; 300 mg) of the same compound?
The value was “approximately 2 fold”.

What about the AUC/Dose ([1]; 300 mg QD repeat dose) of the same compound?
Its AUC/Dose is 110 ng/mL · h/(mg/kg).

What about the “Relative bioavailability (AUC/Dose normalized to 30 mg HV data)” value ([1]; 300 mg QD repeat dose) of the same compound?
The value was 0.28.

And the AUC at 84 day ([1]; 100 mg QD repeat dose, AUC on D84)?
The AUC at 84 day was 19700 ng·h/mL.

And the AUC at 84 day ([1]; 300 mg QD repeat dose, AUC on D84 (steady-state))?
Its AUC at 84 day is 33000 ng·h/mL.

And the “exposure CV within a study group” value ([1]; typically, inter-subject variability)?
The value was over 50%.

What about the “PPARγ mRNA expression (qPCR)” value [2] of the same compound?
Its value is “does not affect”.

And the AUC/Dose ([3]; 400 mg QD)?
Its AUC/Dose is 172 ng/mL · h/(mg/kg).

What about the “Relative bioavailability (AUC/Dose normalized to 30 mg HV data)” value ([3]; 400 mg QD) of the same compound?
Its value is 0.43.

And the AUC/Dose ([3]; 600 mg QD)?
The AUC/Dose was 144 ng/mL · h/(mg/kg).

And the “Relative bioavailability (AUC/Dose normalized to 30 mg HV data)” value ([3]; 600 mg QD)?
Its value is 0.36.

And the half-life ([3]; human, plasma, oral)?
Its half-life is over 24 h.

What about the concentration at 84 day ([3]; human, plasma, oral, 400 mg QD) of the same compound?
The concentration at 84 day was 2860 ng/mL.

What about the AUC ([3]; human, plasma, oral, 400 mg QD) of the same compound?
Its AUC is 68600 ng·h/mL.

And the concentration at 84 day ([3]; human, plasma, oral, 600 mg QD)?
Its concentration at 84 day is 3610 ng/mL.

And the AUC ([3]; human, plasma, oral, 600 mg QD)?
Its AUC is 86700 ng·h/mL.

What about the COL1A1 expression ([4]; Aramchol 10 mM, 24 hours, RNA) of the same compound?
Its COL1A1 expression is “significantly reduced”.

What about the PPARγ expression ([4]; Aramchol 10 mM, 24 hours, RNA) of the same compound?
Its PPARγ expression is “up-regulation”.

What about the collagen production ([4]; relative to a DMSO control) of the same compound?
The collagen production was “significantly down regulates”.

What about the “relative bioavailability at 600 mg compared to 300 mg” value [5] of the same compound?
The value was “approximately 0.75 fold”.

What about the hepatic fat (human NAFLD) of the same compound?
Its hepatic fat is “reduced”.

What about the TAA induced fibrosis (Wistar rats) of the same compound?
Its TAA induced fibrosis is “significantly prevented”.

And the “development of necrosis and cirrhosis (macroscopic)” value (Wistar rats)?
The value was “reduced significantly; also recorded: significantly inhibited”.

What about the “fibrotic score and collagen distribution in the tissue (Masson Goldner staining)” value (Wistar rats; score scale 0-4) of the same compound?
Its value is “reduced significantly”.

And the “hepatic content of diglycerides (DG) and TG” value (0.1MCD-fed mice; 5 mg/Kg/day orally by gavage)?
Its value is “reduction”.

What about the GSH/GSSG ratio (0.1MCD-fed mice; [6]) of the same compound?
The GSH/GSSG ratio was “elevates; also recorded: normalization”.

And the “collagen in the liver (liver extract)” value (0.1MCD-fed mice; [6])?
The value was “significantly down regulates”.

What about the “fibrosis in the liver (sirius red)” value (0.1MCD-fed mice; [6]) of the same compound?
The value was “significantly down regulates/normalizes”.

And the glutathione in liver (0.1MCD-fed mice; [6])?
The glutathione in liver was “significantly up regulates”.

What about the “infiltration and activation status of macrophages in the liver (F4/80, CD64)” value (0.1MCD-fed mice; [6]) of the same compound?
Its value is “significantly down regulates/normalizes”.

And the “steatosis in the liver (Sudan III)” value (0.1MCD-fed mice; [6])?
Its value is “significantly down regulates”.

What about the “FA(16:1)/FA(16:0) ratio” value (0.1MCD-fed mice; [7]) of the same compound?
Its value is “marked decrease”.

And the SCD1 activity (0.1MCD-fed mice; [7])?
The SCD1 activity was “reduced”.

And the SCD1 expression (0.1MCD-fed mice; [7])?
The SCD1 expression was “marked decrease”.

What about the “content of total oxFA including oxLA” value (0.1MCD-fed mice; [7]) of the same compound?
Its value is “marked reduction”.

And the “total content of monounsaturated FA (MUFA)” value (0.1MCD-fed mice; [7])?
Its value is “marked decrease”.
